Assay results from PubChem BioAssay AID330 (DTP/NCI, 2004).
“And” between values parts separate entries of the source, which are not always exact repeats. Equal values may be shown once. Toxic doses and inconclusive results are not listed. How the source made its calls: active means survival T/C of 150% or more; inactive means T/C below 125% in these data.

Tested on: P388 leukemia ip, CD2F1 mice, survival T/C
Assay: NCI In Vivo Anticancer Drug Screen. Data for tumor model P388 Leukemia (intraperitoneal) in CD2F1 (CDF1) mice
Conditions: endpoint: median survival time, higher = longer survival
Procedure, shortened: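 Mice carrying the transplanted tumor received test compound or vehicle. Survival was recorded in each group, and the value is the treated-group measurement divided by that of the vehicle-treated control group.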

[1] = dose: 60.0 mg/kg/injection, schedule: Q01DX005 (ip), vehicle: saline with Tween-80
[2] = dose: 50.0 mg/kg/injection, schedule: Q01DX005 (ip), vehicle: saline with Tween-80
[3] = dose: 100.0 mg/kg/injection, schedule: Q01DX005 (ip), vehicle: saline with Tween-80
[4] = dose: 200.0 mg/kg/injection, schedule: Q01DX005 (ip), vehicle: saline with Tween-80
[5] = dose: 25.0 mg/kg/injection, schedule: Q01DX009 (ip), vehicle: saline with Tween-80
[6] = dose: 50.0 mg/kg/injection, schedule: Q01DX009 (ip), vehicle: saline with Tween-80
[7] = dose: 100.0 mg/kg/injection, schedule: Q01DX009 (ip), vehicle: saline with Tween-80
[8] = dose: 200.0 mg/kg/injection, schedule: Q01DX009 (ip), vehicle: saline with Tween-80

Measured: T/C

O=C1SC/C(=N\N=c2/scc(-c3ccc(Br)cc3)n2-c2ccc(Br)cc2)N1Cc1ccccc1
inactive: dose: 100.0 mg/kg/injection, schedule: Q04DX002 (ip), vehicle: Klucel (hydroxypropylcellulose) (HPC) 91 % of control | dose: 200.0 mg/kg/injection, schedule: Q04DX002 (ip), vehicle: Klucel (hydroxypropylcellulose) (HPC) 92 % of control | dose: 400.0 mg/kg/injection, schedule: Q04DX002 (ip), vehicle: Klucel (hydroxypropylcellulose) (HPC) 90 % of control

COc1ccc2c(c1)C(O)(CN)CCCCC(OC)CCCC2 (stereo unspecified)
inactive: dose: 7.5 mg/kg/injection, schedule: Q01DX005 (ip), vehicle: saline with Tween-80 100 % of control | dose: 15.0 mg/kg/injection, schedule: Q01DX005 (ip), vehicle: saline with Tween-80 101 % of control | dose: 30.0 mg/kg/injection, schedule: Q01DX005 (ip), vehicle: saline with Tween-80 99 % of control | [1] 101 % of control

CCOC(=Nc1ccc(C#N)cc1)SC(c1ccccc1)(c1ccccc1)c1ccccc1
inactive: [2] 104 % of control | [3] 96 % of control | [4] 86 % of control

C=CCN1CSC(=S)N(CC=C)C1
inactive: [5] 98 % of control | [6] 119 % of control and 94 % of control

CN(/C(=N/C(=S)NCc1ccccc1)SCc1ccccc1)c1ccccc1
inactive: [2] 94 % of control | [3] 86 % of control

O=S(=O)(c1cccc(C(F)(F)F)c1)N(CCCCCN(S(=O)(=O)c1cccc(C(F)(F)F)c1)S(=O)(=O)c1cccc(C(F)(F)F)c1)S(=O)(=O)c1cccc(C(F)(F)F)c1
inactive: dose: 60.0 mg/kg/injection, schedule: Q01DX005 (ip), vehicle: Klucel (hydroxypropylcellulose) (HPC) 101 % of control | dose: 120.0 mg/kg/injection, schedule: Q01DX005 (ip), vehicle: Klucel (hydroxypropylcellulose) (HPC) 92 % of control | dose: 240.0 mg/kg/injection, schedule: Q01DX005 (ip), vehicle: Klucel (hydroxypropylcellulose) (HPC) 88 % of control

O=C1CCSC(=S)N1c1ccc(F)cc1
inactive: dose: 50.0 mg/kg/injection, schedule: Q01DX009 (ip), vehicle: suspension in saline 99 % of control | dose: 100.0 mg/kg/injection, schedule: Q01DX009 (ip), vehicle: suspension in saline 106 % of control | dose: 200.0 mg/kg/injection, schedule: Q01DX009 (ip), vehicle: suspension in saline 90 % of control

COc1ccc(C2CC(=O)CC2c2ccc(OC)cc2)cc1 (stereo unspecified)
inactive: dose: 50.0 mg/kg/injection, schedule: Q01DX001 (ip), vehicle: Klucel (hydroxypropylcellulose) (HPC) 99 % of control | dose: 100.0 mg/kg/injection, schedule: Q01DX001 (ip), vehicle: Klucel (hydroxypropylcellulose) (HPC) 100 % of control | dose: 200.0 mg/kg/injection, schedule: Q01DX001 (ip), vehicle: Klucel (hydroxypropylcellulose) (HPC) 100 % of control

CCNc1ccc2ccccc2c1N=Nc1ccc(N=Nc2ccccc2)cc1
inactive: [5] 90 % of control | [6] 90 % of control and 94 % of control | [7] 95 % of control | [8] 100 % of control

COC1OC2COC(c3ccccc3)OC2C(OC(C)=O)C1OC(C)=O (stereo unspecified)
inactive: dose: 12.5 mg/kg/injection, schedule: Q01DX009 (ip), vehicle: other 98 % of control | dose: 25.0 mg/kg/injection, schedule: Q01DX009 (ip), vehicle: other 99 % of control | dose: 50.0 mg/kg/injection, schedule: Q01DX009 (ip), vehicle: other 100 % of control | dose: 100.0 mg/kg/injection, schedule: Q01DX009 (ip), vehicle: other 95 % of control | dose: 200.0 mg/kg/injection, schedule: Q01DX009 (ip), vehicle: other 100 % of control

CCC/C(=N\NC(N)=Nc1ccc(Cl)cc1)c1ccc(Cl)cc1
inactive: dose: 25.0 mg/kg/injection, schedule: Q04DX002 (ip), vehicle: saline with Tween-80 99 % of control | dose: 50.0 mg/kg/injection, schedule: Q04DX002 (ip), vehicle: saline with Tween-80 100 % of control | dose: 100.0 mg/kg/injection, schedule: Q04DX002 (ip), vehicle: saline with Tween-80 104 % of control

CCN1C(=O)CCN(S(=O)(=O)c2ccc(-n3nc(C)cc3C)cc2)C1=S
inactive: [2] 99 % of control | [3] 95 % of control | [4] 103 % of control

Cc1csc2ccccc12
inactive: [6] 102 % of control | [1] 101 % of control | [7] 119 % of control | dose: 120.0 mg/kg/injection, schedule: Q01DX005 (ip), vehicle: saline with Tween-80 100 % of control | [8] 92 % of control | dose: 240.0 mg/kg/injection, schedule: Q01DX005 (ip), vehicle: saline with Tween-80 100 % of control

C1CN1CN1CC1
inactive: dose: 50.0 mg/kg/injection, schedule: Q01DX005 (ip), vehicle: Klucel (hydroxypropylcellulose) (HPC) 102 % of control | dose: 100.0 mg/kg/injection, schedule: Q01DX005 (ip), vehicle: Klucel (hydroxypropylcellulose) (HPC) 99 % of control

C=C=C(COC(C)=O)ON1CCC(C)CC1
inactive: dose: 9.0 mg/kg/injection, schedule: Q01DX001 (ip), vehicle: saline 102 % of control | dose: 18.12 mg/kg/injection, schedule: Q01DX001 (ip), vehicle: saline 102 % of control | dose: 36.25 mg/kg/injection, schedule: Q01DX001 (ip), vehicle: saline 100 % of control

COC(=O)C1CC2C3C=CC(C4C(=O)NC(=O)C34)C12OC (stereo unspecified)
inactive: dose: 100.0 mg/kg/injection, schedule: Q01DX001 (ip), vehicle: saline with Tween-80 95 % of control | dose: 200.0 mg/kg/injection, schedule: Q01DX001 (ip), vehicle: saline with Tween-80 92 % of control
